Experimental findings from ChEMBL document CHEMBL1201862, “PubChem BioAssay data set” (2004) are described below.

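Values below derive from 48-hour exposures of cells grown in 96-well plates, with endpoints linearly interpolated between the two concentrations bracketing the appropriate inhibition level. GI50: concentration for 50% inhibition of growth.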 The source made the active and inactive calls. Cut-off read from the data, not from the text of the source: active = GI50 up to about 1.1 µM and inactive = higher.

Common to all, as to experiment: DTP human tumour cell line panel, 48 h
For assay [1], the system named is SF-539.
In assay [2] the test system is HCT-116.
Assay [3] relates to CCRF-CEM.
Assay [4] deals with MDA-MB-435.
Assay [5] deals with SW-620.
Assay [6] has as its system A549.
The test system of assay [7] is MOLT-4.
Assay [8] relates to MCF7.
Assay [9] concerns IGROV-1.
Assay [10] relates to SN12C.
The subject of assay [11] is HOP-62.
Assay [12] relates to SF-295.
The subject of assay [13] is NCI-H23.
Assay [14] relates to SK-MEL-5.
For assay [15], the system named is T47D.
The subject of assay [16] is COLO 205.
Assay [17] deals with Malme-3M.
Assay [18] concerns SNB-75.
Assay [19] concerns HL-60.

For the molecule `C/C(=N\Nc1nc2ccccc2s1)c1cccc[n+]1[O-]`, the GI50 in assay [1] was 45.1 µM (inactive); in assay [2] it was 7.55 µM (inactive); in [3], 25.2 µM (inactive); in assay [4], 99.1 µM (inactive); in assay [5], 32.7 µM (inactive); in assay [6], 42.8 µM (inactive). Besides, the GI50 in assay [7] was 1.81 µM (inactive); in assay [8], 23.2 µM (inactive); in assay [9], 21.7 µM (inactive); in [10], 48.9 µM (inactive); in assay [11], 48.3 µM (inactive); in [12] it was 0.594 µM (active). The GI50 in [13] is 47.3 µM (inactive); in assay [14] it was 32.8 µM (inactive); in assay [15], 30.8 µM (inactive); in assay [16], 32.2 µM (inactive); in [17], 1.09 µM (active).

Take `CCOP(=O)(Nc1ccc(-c2ccc(N)cc2)cc1)OCC`: the GI50 in assay [2] was 99.8 µM (inactive); in assay [4] it was > 100 µM (inactive); in assay [6] it was > 100 µM (inactive); in assay [7], > 100 µM (inactive); in assay [8], > 100 µM (inactive); in [9], > 100 µM (inactive). The GI50 was 89.5 µM (inactive) in [11]; 84.5 µM (inactive) in assay [12]; > 100 µM (inactive) in assay [13]; > 100 µM (inactive) in assay [14]; > 100 µM (inactive) in assay [16]; > 100 µM (inactive) in assay [18]. For the same molecule, the GI50 in assay [17] was > 100 µM (inactive).

As for `COc1cc2c(cc1OC)[C@@H]1[C@H](C#N)C(=O)C(C)(C)N1CC2`, the GI50 is > 100 µM (inactive) in assay [2]; > 100 µM (inactive) in assay [3]; 23.6 µM (inactive) in assay [19]; > 100 µM (inactive) in [4]; > 100 µM (inactive) in [5]; > 100 µM (inactive) in assay [6]. Besides, the GI50 in [7], in [8], in assay [9], in assay [10], in assay [12] and in assay [13] was > 100 µM (inactive) throughout. Further, the GI50 in assay [14], in assay [16] and in assay [17] was > 100 µM (inactive) throughout.

As to `O=C1NC2=NN=C(c3ccc(Br)cc3)CN2NC12c1ccccc1-c1ccccc12`, the GI50 was > 100 µM (inactive) in assay [1]; > 100 µM (inactive) in [2]; 3.05 µM (inactive) in [3]; > 100 µM (inactive) in [4]; > 100 µM (inactive) in [5]; > 100 µM (inactive) in assay [6]. Besides, the GI50 was 73.3 µM (inactive) in [8]; > 100 µM (inactive) in [9]; > 100 µM (inactive) in assay [10]; > 100 µM (inactive) in assay [11]; > 100 µM (inactive) in [12]; > 100 µM (inactive) in assay [13]. The GI50 in assay [14], in [16], in [18] and in [17] was > 100 µM (inactive) in each case.

As for `CN1C2CCC1CN(CCOC(c1ccc(F)cc1)c1ccc(F)cc1)C2`, the GI50 in assay [1] is 16.6 µM (inactive); in [2], 17.8 µM (inactive); in assay [3], 36.7 µM (inactive); in assay [19], 12.6 µM (inactive); in [4], 23.4 µM (inactive); in assay [5], 23.6 µM (inactive). In addition, the GI50 is 65 µM (inactive) in [6]; 23.6 µM (inactive) in assay [7]; 36.1 µM (inactive) in assay [9]; 47.9 µM (inactive) in assay [10]; 21.4 µM (inactive) in assay [11]; 19.1 µM (inactive) in assay [12]. The GI50 is 69.7 µM (inactive) in [13]; 14.4 µM (inactive) in assay [14]; 24.3 µM (inactive) in [15]; 15.3 µM (inactive) in [16]; 26.5 µM (inactive) in assay [18]; 17.9 µM (inactive) in assay [17].

As to `Cc1cccc2c(=O)c3cccc([C@H](C)C(=O)O)c3oc12`, the GI50 in [1], in assay [2], in assay [3], in assay [19], in assay [4] and in [5] was > 100 µM (inactive) in each case. Also, the GI50 in assay [6], in assay [7], in [9], in assay [10], in assay [11] and in [12] was > 100 µM (inactive) throughout. Besides, the GI50 in assay [13], in assay [14], in assay [15], in assay [16] and in [17] was > 100 µM (inactive) throughout.

As for `C[C@]12CC[C@H]3[C@@H](CCC4=CC(=O)C=C[C@@]43O)[C@@H]1CCC2=O`, the GI50 in [1] was > 100 µM (inactive); in [2] it was > 100 µM (inactive); in assay [3], 26.4 µM (inactive); in assay [4] it was > 100 µM (inactive); in assay [5] it was > 100 µM (inactive); in assay [6] it was 62.1 µM (inactive). Further, the GI50 was 27.2 µM (inactive) in assay [7]; > 100 µM (inactive) in [8]; 94 µM (inactive) in assay [9]; > 100 µM (inactive) in assay [10]; > 100 µM (inactive) in assay [11]; > 100 µM (inactive) in assay [12]. The GI50 is 51.5 µM (inactive) in assay [13]; 82 µM (inactive) in assay [14]; > 100 µM (inactive) in [15]; > 100 µM (inactive) in assay [16]; > 100 µM (inactive) in [18].

As to `C[C@]12CC[C@H]3[C@@H](CC[C@]4(O)C[C@@H](O)CC[C@]34CO)[C@@]1(O)CC[C@@H]2C1=CC(=O)OC1` [STROPHANTHIDOL], the GI50 in assay [1] was 1.15 µM (inactive); in [2], 0.553 µM (active); in assay [3], 0.522 µM (active); in assay [19], 1.64 µM (inactive); in assay [4] it was 2.57 µM (inactive); in assay [5] it was 2.37 µM (inactive). Besides, the GI50 was 0.453 µM (active) in [6]; 0.225 µM (active) in assay [7]; 2.79 µM (inactive) in [9]; 3.47 µM (inactive) in assay [10]; 1.36 µM (inactive) in assay [11]; 1.21 µM (inactive) in [12]. Moreover, the GI50 in assay [13] is 1.48 µM (inactive); in [14], 0.979 µM (active); in assay [15] it was 3.3 µM (inactive); in [16], 3.73 µM (inactive); in assay [18], 4.02 µM (inactive); in assay [17], 2.21 µM (inactive).

For `COC(=O)C1CCC(=S)N1C(=O)OCc1ccccc1` (stereo unspecified), the GI50 was 83.9 µM (inactive) in assay [2]; 3.61 µM (inactive) in [3]; > 100 µM (inactive) in assay [4]; 83.2 µM (inactive) in assay [5]; 71 µM (inactive) in [6]; > 100 µM (inactive) in assay [7]. Besides, the GI50 in assay [8] was 88.3 µM (inactive); in assay [9], > 100 µM (inactive); in [11], > 100 µM (inactive); in assay [12] it was 78 µM (inactive); in [13] it was > 100 µM (inactive); in assay [14], > 100 µM (inactive). In addition, the GI50 in assay [15], in assay [16], in assay [18] and in assay [17] was > 100 µM (inactive) in each case.

In the case of `CCN(CC)C(=O)CCCCCCCCC1CO1` (stereo unspecified), the GI50 in assay [1] was > 100 µM (inactive); in assay [2] it was > 100 µM (inactive); in [3] it was > 100 µM (inactive); in [19], 21.1 µM (inactive); in assay [4], > 100 µM (inactive); in assay [5], > 100 µM (inactive). Also, the GI50 in assay [6], in assay [7], in assay [8], in assay [9], in [10] and in [11] was > 100 µM (inactive) throughout. For the same molecule, the GI50 in assay [12] was > 100 µM (inactive); in [13], > 100 µM (inactive); in [14], > 100 µM (inactive); in assay [16] it was > 100 µM (inactive); in [18], > 100 µM (inactive); in assay [17], 81.3 µM (inactive).

Regarding `COc1cc(=O)n2c3ccccc3n(C)c2c1C#N`, the GI50 in assay [1] is > 100 µM (inactive); in assay [2], 43.8 µM (inactive); in assay [3], > 100 µM (inactive); in assay [19], > 100 µM (inactive); in [4], > 100 µM (inactive); in [5], > 100 µM (inactive). Further, the GI50 in assay [6] was > 100 µM (inactive); in assay [7], 45.3 µM (inactive); in assay [8], > 100 µM (inactive); in assay [9], > 100 µM (inactive); in [10], > 100 µM (inactive); in [11], > 100 µM (inactive). Further, the GI50 in assay [12] was 22.6 µM (inactive); in assay [13], > 100 µM (inactive); in assay [14] it was > 100 µM (inactive); in [16], > 100 µM (inactive); in assay [18], > 100 µM (inactive); in assay [17] it was > 100 µM (inactive).

Consider `Cc1cccc(C(C)O)n1` (stereo unspecified), for which the GI50 in assay [1], in assay [2], in [3], in assay [19], in assay [5] and in [6] was > 100 µM (inactive) throughout. Also, the GI50 in assay [7], in [8], in [9], in assay [10], in [11] and in assay [12] was > 100 µM (inactive) each time. The GI50 in assay [13] was > 100 µM (inactive); in [14], > 100 µM (inactive); in [15], > 100 µM (inactive); in assay [16] it was > 100 µM (inactive); in assay [18], > 100 µM (inactive); in assay [17] it was 24 µM (inactive).
